# Read-outs that look alike come from different tables or passages of the source.
# Columns and labels:
# [1] = target: T1, serotonin S2 (5-HT2) receptors (Rattus norvegicus, UniProt P14842); test: inhibition of 3H-ketanserin binding to serotonin S2 (5-HT2) receptors in rat cortex in vitro; conditions: 3H-ketanserin 0.5 nM, rat cortex membranes, read-out: Binding IC50, 3H Ket.
# T1 construct: cortical tissue is dissected and weighed; from tissue; host or cells: cerebral cortex membranes of male Wistar (Mol:Wist) rats
# T1 sequence (P14842 whole entry): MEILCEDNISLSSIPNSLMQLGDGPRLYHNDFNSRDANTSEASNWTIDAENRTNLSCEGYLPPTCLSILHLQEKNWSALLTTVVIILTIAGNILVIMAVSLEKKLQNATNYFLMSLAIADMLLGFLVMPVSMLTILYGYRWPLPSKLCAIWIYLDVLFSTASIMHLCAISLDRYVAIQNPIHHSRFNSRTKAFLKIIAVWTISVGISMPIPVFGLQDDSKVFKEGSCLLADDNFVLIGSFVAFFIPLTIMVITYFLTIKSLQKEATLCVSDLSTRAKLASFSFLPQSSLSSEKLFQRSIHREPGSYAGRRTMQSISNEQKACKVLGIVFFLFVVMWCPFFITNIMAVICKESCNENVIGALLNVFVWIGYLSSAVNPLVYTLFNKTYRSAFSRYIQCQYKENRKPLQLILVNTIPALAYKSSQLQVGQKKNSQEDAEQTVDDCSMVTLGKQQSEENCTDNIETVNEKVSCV
# Procedure: Method in Hyttel, Pharmacology & Toxicology, 61, 126-129. 1987.
# Male Wistar (Mol:Wist) rats (125-250 g) are sacrifices and cortical tissue is dissected and weighed. The tissue is homogenized (Ultra Turrax, 10 sec.) in 10 ml of ice-cold 50 mM tris buffer pH 7.7 (at 25° C.). The centrifuge glassware used in this step has been rinsed by sonication for 10 min. in ethanol. The homogenate is centrifuged twice at 20,000 g for 10 min. at 4° C. with rehomogenization of the pellet in 10 ml ice-cold buffer. The final pellet is homogenized in 500 vol (w/v) ice-cold buffer.
# Incubation tubes kept on ice in triplicate receive 100 μl of drug solution in water (or water for total binding) and 2000 μl of tissue suspension (final tissue content corresponds to 4 mg original tissue). […] After incubation for 30 min. the samples are filtered under vacuum (0-50 mBar) through Whatman GF/F filters (25 mm). The tubes are rinsed with 5 ml ice-cold buffer which are then poured on the filters. Thereafter, the filters are washed with 2×5 ml of buffer. The filters are placed in counting vials and 4 ml of appropriate scintillation fluid (e.g., Picofluor™15) are added. After shaking for 1 h and storage 2 hrs in the dark the content of radioactivity is determined by liquid scintillation counting. Specific binding is obtained by subtracting the nonspecific binding in the presence of 1 μM mianserin. For determination of the inhibition of binding five concentrations of drugs covering 3 decades are used.
# The IC50 value is determined as the concentration at which the binding is 50% of the total binding in control samples minus the nonspecific binding in the presence of 1 μM mianserin.
# [2] = target: T2, 5-HT2 (Rattus norvegicus, UniProt P14842); test: quipazine inhibition (quipazine-induced head twitches in rats); assay type: in vivo
# T2 construct: Four rats, male Wistar (Mol:Wist) SPF rats weighing 170-240 g; from tissue; host or cells: living male Wistar (Mol:Wist) SPF rats (in vivo, endogenous receptor)
# T2 sequence (P14842 whole entry): as above
# Procedure: Quipazine is a 5-HT2 agonist, which induces head twitches in rats. The test is a test for 5-HT2 -antagonistic effect testing the ability to inhibit head twitches. The method and test results for some reference substances are published by Arnt et al. (Drug Development Research, 16, 59-70, 1989).
# Test substance is injected s.c. 2 hrs before or p.o. 24 hrs before quipazine administration (6.8 mg/kg, s.c., dimaleate). Four rats, male Wistar (Mol:Wist) SPF rats weighing 170-240 g, are used at each dose level. A control group is included each test day. By repeated testing (2, 24 hrs) the control group is the same, however. After quipazine administration the rats are individually placed in the observation cages and head twitches are counted in an observation period of 30-40 min. after injection of quipazine.
# Total number of head twitches in each group is calculated and the result for each dose is expressed as per cent of the response in the control group. ED50 values are calculated by log-probit analysis. The test must be repeated if the average number of head twitches is lower than 9 in the control group.
# [3] = target: T3, DA D-2 (Rattus norvegicus, UniProt P61169); test: antagonism of pergolide-induced circling behaviour in rats with unilateral 6-OHDA lesions; assay type: in vivo; conditions: sc, read-out: Pergolide rot. inhibition ED50, 2h (sc), 6-OHDA lesions, s.c., 2 h before pergolide
# T3 construct: Male Wistar rats (Mol:Wist) weighing about 200 g at the time of operation are used; from tissue; host or cells: living male Wistar (Mol:Wist) rats with unilateral 6-OHDA lesions (in vivo, endogenous receptor)
# T3 sequence (P61169 whole entry): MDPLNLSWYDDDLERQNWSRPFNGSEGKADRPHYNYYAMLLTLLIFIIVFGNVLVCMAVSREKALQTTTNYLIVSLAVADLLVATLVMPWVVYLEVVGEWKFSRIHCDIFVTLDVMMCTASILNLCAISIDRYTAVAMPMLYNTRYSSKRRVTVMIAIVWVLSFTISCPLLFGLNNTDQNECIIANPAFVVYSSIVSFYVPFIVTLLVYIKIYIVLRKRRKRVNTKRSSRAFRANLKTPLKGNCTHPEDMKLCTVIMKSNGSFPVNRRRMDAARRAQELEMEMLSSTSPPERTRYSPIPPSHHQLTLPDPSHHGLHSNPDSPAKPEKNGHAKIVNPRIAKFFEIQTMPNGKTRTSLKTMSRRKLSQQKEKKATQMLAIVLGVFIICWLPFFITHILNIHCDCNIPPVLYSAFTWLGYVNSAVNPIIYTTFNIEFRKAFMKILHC
# Procedure: ANTAGONISM OF PERGOLIDE-INDUCED CIRCLING BEHAVIOUR IN RATS WITH UNILATERAL 6-OHDA LESIONS
# Dopamine (DA) D-2 agonists induce contralateral circling behaviour in rats with 6-OHDA lesions. Pergolide-induced circling is antagonized by DA D-2 antagonists.
# Male Wistar rats (Mol:Wist) weighing about 200 g at the time of operation are used. Unilateral lesions are made in pentobarbital anaesthetized rats by injection of 6-OHDA. HCl 9.7 μg/μl (equivalent to 8 μg free base) per 4 min. into the rostral tip of the substantia nigra. The saline solution contains ascorbic acid 0.2 mg/ml, is bubbled with N2 and is kept ice-cold. The experiments are done when stable contralateral circling responses to pergolide (0.05 μmol/kg, s.c.) are obtained. The circling response is measured in rotometer bowls. Only rats showing more than 400 complete turns in 2 hrs control session are used. Dose-response curves are obtained by alternating test and control sessions on a weekly basis. The antagonists are injected s.c. 2 hrs before the agonist. The effect of individual doses of test drugs is calculated as per cent of the mean effect of control sessions one week before and one week after the test session for each rat. ED50 values are calculated by log-probit analysis. Four to eight rats are used at each dosage.
# [4] = target: α1 adrenoceptors; test: inhibition of 3H-prazosin binding to α1 adrenoceptors in rat brain in vitro; conditions: 3H-prazosin 0.25 nM, rat brain membranes, read-out: Binding IC50, 3H Praz.
# Procedure: INHIBITION OF ^3 H-PRAZOSIN BINDING TO α1 ADRENOCEPTORS IN RAT BRAIN IN VITRO
# Method and results in Hyttel and Larsen, J. Neurochem, 44, 1615-1622, 1985; Skarsfeldt and Hyttel, Eur. J. Pharmacol. 125, 323-340, 1986.
# (§1) Male Wistar (Mol:Wist) rats (125-200 g) are sacrificed and brain tissue is dissected and weighed. The tissue is homogenized (Ultra Turrax, 10 sec.) in 10 ml of ice-cold 50 nM Tris buffer pH 7.7 (at 25° C.). The homogenate is centrifuged twice at 20,000 g for 10 min. at 4° C. with rehomogenization of the pellet in 10 ml ice-cold buffer. The final pellet is homogenized in 400 vol (w/v) ice-cold buffer.
# Incubation tubes kept on ice in triplicate receive 100 μl of drug solution in water (or water for total binding) and 4000 μl of tissue suspension (final tissue content corresponds to 10 mg original tissue). The binding experiment is initiated by addition of 100 μl of ^3 H-Prazosin (final concentration 0.25 nM) and by placing the tubes in a 25° C. water bath. After incubation for 20 min. the samples are filtered under vacuum (0-50 mBar) through Whatman GF/F filters (25 mm). The tubes are rinsed with 5 ml ice-cold buffer which then are poured on the filters. Thereafter, the filters are washed with 5 ml of buffer. The filters are placed in counting vials and 4 ml of appropriate scintillation fluid (e.g. Picofluor™15) are added. After shaking for 1 h and storage 2 hrs in the dark the content of radioactivity is determined by liquid scintillation counting. Specific binding is obtained by subtracting the nonspecific binding in the presence of 1 μM of Prazosin.
# (§2) For determination of the inhibition of binding five concentrations of drugs covering 3 decades are used.
# The measured cpm are plotted against drug concentration on semilogarithmic paper and the best fitting S-shaped curve is drawn. The IC50 value is determined as the concentration at which the binding is 50% of the total binding in control samples minus the nonspecific binding in the presence of 1 μM of Prazosin. ^3 H-Prazosin=[furoyl-5-^3 H]-Prazosin from New England Nuclear, specific activity approximately 20 Ci/mmol.
# [5] = target: T4, dopamine D-2 receptors (Rattus norvegicus, UniProt P61169); test: inhibition of 3H-spiperone binding to dopamine D-2 receptors in rat corpus striatum in vitro; conditions: 3H-spiperone 0.5 nM, rat corpus striatum membranes, in vitro; read-out: Binding IC50, 3H Spi.
# T4 construct: striatal tissue is dissected and weighed; from tissue; host or cells: corpus striatum membranes of male Wistar rats
# T4 sequence (P61169 whole entry): as above
# Procedure: INHIBITION OF ^3 H-SPIPERONE BINDING TO DOPAMINE D-2 RECEPTORS IN RAT CORPUS STRIATUM IN VITRO
# By this method the inhibition by drugs of the binding of ^3 H-spiperone (0.5 nM) to dopamine D-2 receptors in membranes from rat corpus striatum is determined in vitro. Method and results in Hyttel and Larsen, J. Neurochem, 44, 1615-1622, 1985).
# as §1, with “(Mol:Wistar)” for “(Mol:Wist)”, “(125-250” for “(125-200”, “striatal” for “brain”, “mM K-phosphate” for “nM Tris”, “7.4” for “7.7”, “1300” for “400”
# Incubation tubes kept on ice in triplicate receive 100 μl of drug solution in water (or water for total binding) and 4000 μl of tissue suspension (final tissue content corresponds to 3.08 mg original tissue). The binding experimental is initiated by addition of 100 μl of ^3 H-spiperone (final concentration 0.5 nM) and by placing the tubes in a 37° C. water bath. After incubation for 10 min. the samples are filtered under vacuum (0-50 mBar) through Whatman GF/F filters (25 mm). The tubes are rinsed with 5 ml ice-cold buffer which are then poured on the filters. Thereafter, the filters are washed with 2×5 ml of buffer. The filters are placed in counting vials and 4 ml of appropriate scintillation fluid (e.g. Picofluor ™15) are added. After shaking for 1 h and storage 2 hrs in the dark the content of radioactivity is determined by liquid scintillation counting. Specific binding is obtained by subtracting the nonspecific binding in the presence of 10 μM of 6,7-ADTN.
# as §2
# England, specific activity 15-25 Ci/mmol.
# [6] = sc, 2 h, read-out: Quipazine inhibition ED50, 2h (sc)
# [7] = po, 24 h, read-out: Quipazine inhibition ED50, 24h (po)
SMILES,IC50 [1] [µM],"ED50 [2, 6] [µmol/kg]",ED50 [3] [µmol/kg],"ED50 [2, 7] [µmol/kg]",IC50 [4] [µM],IC50 [5] [µM]
"O=C1NCCN1CCN1CCC(c2cn(-c3ccc(F)cc3)c3cc(Cl)ccc23)CC1 [Compound 4b, 6-chloro-1-(4-fluorophenyl)-3-[1-[2-(2-imidazolidinon-1yl)ethyl]-4-piperidyl]-1H-indole]",0.0014,0.06,> 23,,,
"O=C1NCCN1CCN1CCC(c2cn(-c3ccc(F)cc3)c3cc(Cl)c(Cl)cc23)CC1 [Compound 5f, 5,6-dichloro-1-(4-fluorophenyl)-3-[1-[2-(2-imidazolidinon-1-yl)ethyl]-4-piperidyl]-1H-indole]",0.0035,0.12,> 42,0.04,,
"Cc1ccc2c(N3CCN(CCN4CCN(C(C)C)C4=O)CC3)cn(-c3ccc(F)cc3)c2c1 [Compound 6b, 1-(4-fluorophenyl)-6-methyl-3-[4-[2-[3-(2-propyl)-2-imidazolidinon-1-yl]ethyl]-1-piperazinyl]-1H-indole]",0.0027,0.04,,,0.076,0.18
"Cc1ccc2c(C3CCN(CCNC(=O)N(C)C)CC3)cn(-c3ccc(F)cc3)c2c1 [Compound 9b, 3-[1-[2-(3,3-dimethyl-1-ureido)-1-ethyl]-4-piperidyl]-1-(4-fluorophenyl)-6-methyl-1H-indole]",0.0026,0.12,,< 0.14,,
Cc1ccc2c(C3CCN(CCN4CCN(C(C)C)C4=O)CC3)cn(-c3ccccc3)c2c1 [Compound 15a],0.002,0.01,,,0.12,0.5
"Cc1ccc2c(C3CCN(CCN4CCN(C(C)C)C4=O)CC3)cn(-c3cccc(F)c3)c2c1 [Compound 15g, 1-(3-fluorophenyl)-3-[1-[2-[3-(2-propyl)-2-imidazolidinon-1-yl]ethyl]-4-piperidyl]-6-methyl-1H-indole]",0.011,,,,0.67,3.2
"Cc1ccc2c(C3CCN(CCN4CCN(C(C)C)C4=O)CC3)cn(-c3ccc(Cl)cc3)c2c1 [Compound 15h, 1-(4-chlorophenyl)-3-[1-[2-[3-(2-propyl)-2-imidazolidinon-1-yl]ethyl]-4-piperidyl]-6-methyl-1H-indole]",0.006,,,,0.45,0.62
"CC(C)N1CCN(CCN2CCC(c3cn(-c4ccccc4F)c4cc(Cl)ccc34)CC2)C1=O [Compound 15j, 6-chloro-1-(2-fluorophenyl)-3-[1-[2-[3-(2-propyl)-2-imidazolidinon-1-yl]ethyl]-4-piperidyl]-1H-indole]",0.0037,0.08,,,0.12,0.3
"Cc1ccc2c(c1)N(c1ccc(F)cc1)CC2C1CCN(CCN2CCN(C(C)C)C2=O)CC1 (centres unmarked) [Compound 20a, 1-(4-fluorophenyl)-6-methyl-3-[1-[2-[3-(2-propyl)-2-imidazolidinon-1-yl]ethyl]-4-piperidyl]-2,3-dihydro-1H-indole]",0.0053,0.49,,,,0.18
"Cc1c(C2CCN(CCN3CCNC3=O)CC2)c2ccccc2n1-c1ccc(F)cc1 [Compound 24c, 1-(4-fluorophenyl)-3-[1-[2-(2-imidazolidinon-1-yl)ethyl]-4-piperidyl]-2-methyl-1H-indole]",0.00069,,,,0.061,0.38
"CN(C)CCSc1nc2ccccc2cc1-c1ccccc1 [ICI 169369, reference compound]",0.015,> 3.6,,,0.3,0.49

# Source: patent US5216001A, “Indole derivatives” (H. Lunbeck A/S, priority 1990, dated 1993)
